Values quoted from earlier work in patent US6218375A, “Complex of ras-farnesyltransferase inhibitor and sulfobutylether-7-β-cyclodextrin or 2-hydroxypropyl-β-cyclodextrin and method” (priority 2000, dated 2001).

Tests used:
[1] = by β-cyclodextrin
[2] = by cyclodextrins
[3] = complexes with cyclodextrin derivatives, sublingual or buccal route

Structure (SMILES) | stabilization [1] | water-solubility [2] | elimination [3] | transfer into the systemic circulation [3]
O=[N+]([O-])OCC(CO[N+](=O)[O-])O[N+](=O)[O-] [nitroglycerin] | increases stabilization |  |  | 
CCN(CC)CCOC(=O)c1ccc(N)cc1 [procaine] | increases stabilization | increase water-solubility |  | 
C=CCS[S+]([O-])CC=C (centres unmarked) [allicin] | increases stabilization |  |  | 
CCN(CC)CCOC(=O)C(c1ccccc1)c1ccccc1 [adipherine] |  | increase water-solubility |  | 
CCCCC/C=C\C/C=C\CCCCCCCC(=O)O [linoleic acid] | increases stabilization |  |  | 
CC(=O)Oc1ccccc1C(=O)O [aspirin] |  | increase water-solubility |  | 
COc1ccc2c(c1)c(CC(=O)O)c(C)n2C(=O)c1ccc(Cl)cc1 [indomethacin] | increases stabilization |  |  | 
C[C@]12CC[C@H]3[C@@H](CCC4=CC(=O)CC[C@@]43C)[C@@H]1CC[C@@H]2O [testosterone] |  | increase water-solubility | only gradual elimination | effective transfer of these hormones into the systemic circulation
CCOC(=O)c1ccc(N)cc1 [benzocaine] | increases stabilization | increase water-solubility |  | 
CC(C)C12C=CC(C)(CC1)OO2 (centres unmarked) [ascaridole] | increases stabilization |  |  | 
C=C1CC[C@H](O)C/C1=C/C=C1\CCC[C@]2(C)[C@@H]([C@H](C)CCCC(C)C)CC[C@@H]12 [vitamin D3] |  | increase water-solubility |  | 
C[C@]12CC[C@@H]3c4ccc(O)cc4CC[C@H]3[C@@H]1CC[C@@H]2O [estradiol] |  |  | only gradual elimination | effective transfer of these hormones into the systemic circulation
CC(=O)[C@H]1CC[C@H]2[C@@H]3CCC4=CC(=O)CC[C@]4(C)[C@H]3CC[C@]12C [progesterone] |  |  | only gradual elimination | effective transfer of these hormones into the systemic circulation
O=C(O)c1ccccc1O [salicyclic acid] | increases stabilization |  |  | 
